Experiments:
Adenosine receptor A3 [1] = biological target: T1, Adenosine receptor A3 (Homo sapiens, UniProt P0DMS8); assay type: cell-based, HEK293
T1 sequence (P0DMS8 whole entry): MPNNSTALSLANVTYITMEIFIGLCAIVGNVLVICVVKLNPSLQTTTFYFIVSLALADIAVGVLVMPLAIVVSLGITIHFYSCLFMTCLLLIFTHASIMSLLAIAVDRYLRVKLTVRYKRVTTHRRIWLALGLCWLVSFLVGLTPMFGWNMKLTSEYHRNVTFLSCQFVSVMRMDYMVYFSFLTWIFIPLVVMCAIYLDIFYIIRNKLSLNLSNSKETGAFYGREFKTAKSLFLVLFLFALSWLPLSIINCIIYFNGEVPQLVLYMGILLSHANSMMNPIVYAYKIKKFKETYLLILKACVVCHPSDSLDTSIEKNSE

[2] = biological target: T2, Adenosine receptor A1 (Homo sapiens) (UniProt P30542); assay: Displacement of [3H] DPCPX from human adenosine A1 receptor expressed in HEK293 cells at 10 uM incubated for 60 mins by radioligand binding assay; assay type: cell-based
T2 sequence (whole entry): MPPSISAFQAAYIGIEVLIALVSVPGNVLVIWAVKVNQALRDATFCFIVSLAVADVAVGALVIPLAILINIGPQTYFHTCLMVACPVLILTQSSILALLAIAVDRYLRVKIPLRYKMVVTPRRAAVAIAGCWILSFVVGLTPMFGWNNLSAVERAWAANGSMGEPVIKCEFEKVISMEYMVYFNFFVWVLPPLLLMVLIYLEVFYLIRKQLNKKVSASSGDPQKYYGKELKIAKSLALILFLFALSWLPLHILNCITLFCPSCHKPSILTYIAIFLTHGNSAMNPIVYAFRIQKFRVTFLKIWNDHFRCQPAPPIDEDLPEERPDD

Adenosine receptor A2a [3] = biological target: T3, Adenosine receptor A2a (Homo sapiens, UniProt P29274); assay: Displacement of [3H] ZM241385 from human adenosine A2A receptor expressed in HEK293 cells at 10 uM incubated for 60 mins by radioligand binding assay; assay type: cell-based
Adenosine receptor A2a [4] = biological target: T3, Adenosine receptor A2a; assay: Displacement of [3H] ZM241385 from human adenosine A2A receptor expressed in HEK293 cells incubated for 60 mins by radioligand binding assay; assay type: cell-based
Adenosine receptor A1 [5] = biological target: T4, Adenosine receptor A1 (Homo sapiens, UniProt P30542); assay: Displacement of [3H] DPCPX from human adenosine A1 receptor expressed in HEK293 cells incubated for 60 mins by radioligand binding assay; assay type: cell-based
T4 sequence (P30542 whole entry): T2 sequence (whole entry)

Adenosine receptor A3 [6] = biological target: T5, Adenosine receptor A3 (Mus musculus, UniProt Q61618); assay type: cell-based, HEK293
T5 sequence (Q61618 whole entry): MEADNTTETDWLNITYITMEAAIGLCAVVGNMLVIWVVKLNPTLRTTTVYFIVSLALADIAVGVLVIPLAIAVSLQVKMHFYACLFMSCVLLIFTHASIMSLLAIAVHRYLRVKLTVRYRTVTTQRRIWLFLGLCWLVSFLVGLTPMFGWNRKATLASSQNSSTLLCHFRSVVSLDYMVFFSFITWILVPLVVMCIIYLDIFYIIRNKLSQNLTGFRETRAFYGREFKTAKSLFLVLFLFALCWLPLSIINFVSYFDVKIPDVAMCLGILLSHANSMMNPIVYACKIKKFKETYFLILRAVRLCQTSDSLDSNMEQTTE

Translocator protein = Translocator protein (Homo sapiens, UniProt P30536); assay: Binding affinity to human TSPO receptor by radioligand binding assay
Adenosine receptor A1 [7] = biological target: T6, Adenosine receptor A1 (Mus musculus, UniProt Q60612); assay: Displacement of [3H] DPCPX from mouse adenosine A1 receptor expressed in HEK293 cells incubated for 60 mins by radioligand binding assay; assay type: cell-based
T6 sequence (Q60612 whole entry): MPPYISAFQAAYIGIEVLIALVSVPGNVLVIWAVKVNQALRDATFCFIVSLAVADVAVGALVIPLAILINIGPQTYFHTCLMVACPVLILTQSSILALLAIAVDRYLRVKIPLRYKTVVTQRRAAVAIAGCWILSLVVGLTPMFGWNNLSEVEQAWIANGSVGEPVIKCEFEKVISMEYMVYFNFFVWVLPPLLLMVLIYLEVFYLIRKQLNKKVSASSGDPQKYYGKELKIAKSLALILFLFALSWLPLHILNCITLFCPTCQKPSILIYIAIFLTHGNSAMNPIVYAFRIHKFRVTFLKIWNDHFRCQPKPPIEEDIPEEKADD

[8] = biological target: Sigma intracellular receptor 2 (Homo sapiens, UniProt Q5BJF2); assay: Binding affinity to human sigma2 receptor by radioligand binding assay
D(4) dopamine receptor = D(4) dopamine receptor (Homo sapiens, UniProt P21917); assay: Binding affinity to human D4 receptor by radioligand binding assay
D(3) dopamine receptor = D(3) dopamine receptor (Homo sapiens, UniProt P35462); assay: Binding affinity to human D3 receptor by radioligand binding assay
[9] = biological target: Adenosine receptor A2a (Mus musculus) (UniProt Q60613); assay: Displacement of [3H] ZM241385 from mouse adenosine A2A receptor expressed in HEK293 cells at 10 uM incubated for 60 mins by radioligand binding assay; assay type: cell-based
Chain of Adenosine receptor A2a (Mus musculus) (Q60613 whole entry): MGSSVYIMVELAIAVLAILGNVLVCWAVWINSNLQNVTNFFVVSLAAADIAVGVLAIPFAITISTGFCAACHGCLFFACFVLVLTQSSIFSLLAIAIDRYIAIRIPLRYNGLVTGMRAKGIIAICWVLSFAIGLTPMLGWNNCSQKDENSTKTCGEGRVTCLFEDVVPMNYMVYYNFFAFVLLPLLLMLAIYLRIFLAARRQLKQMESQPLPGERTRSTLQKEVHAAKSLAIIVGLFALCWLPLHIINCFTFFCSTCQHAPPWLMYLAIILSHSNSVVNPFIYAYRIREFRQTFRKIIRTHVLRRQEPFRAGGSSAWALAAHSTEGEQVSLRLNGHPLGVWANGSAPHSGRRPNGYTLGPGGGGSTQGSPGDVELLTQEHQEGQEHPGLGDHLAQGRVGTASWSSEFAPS

T3 sequence (P29274 whole entry): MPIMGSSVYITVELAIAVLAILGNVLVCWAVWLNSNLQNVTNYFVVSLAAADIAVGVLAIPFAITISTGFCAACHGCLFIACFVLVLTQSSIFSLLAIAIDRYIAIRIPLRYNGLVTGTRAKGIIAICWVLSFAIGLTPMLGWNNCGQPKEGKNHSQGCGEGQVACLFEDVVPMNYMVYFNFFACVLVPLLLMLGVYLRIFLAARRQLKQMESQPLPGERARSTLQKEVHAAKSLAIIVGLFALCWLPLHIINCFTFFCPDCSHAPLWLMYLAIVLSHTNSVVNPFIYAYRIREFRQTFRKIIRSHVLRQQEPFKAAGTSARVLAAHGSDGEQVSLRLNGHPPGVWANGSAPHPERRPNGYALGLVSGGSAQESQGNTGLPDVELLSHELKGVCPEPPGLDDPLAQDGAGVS
Chain of D(4) dopamine receptor (P21917 whole entry): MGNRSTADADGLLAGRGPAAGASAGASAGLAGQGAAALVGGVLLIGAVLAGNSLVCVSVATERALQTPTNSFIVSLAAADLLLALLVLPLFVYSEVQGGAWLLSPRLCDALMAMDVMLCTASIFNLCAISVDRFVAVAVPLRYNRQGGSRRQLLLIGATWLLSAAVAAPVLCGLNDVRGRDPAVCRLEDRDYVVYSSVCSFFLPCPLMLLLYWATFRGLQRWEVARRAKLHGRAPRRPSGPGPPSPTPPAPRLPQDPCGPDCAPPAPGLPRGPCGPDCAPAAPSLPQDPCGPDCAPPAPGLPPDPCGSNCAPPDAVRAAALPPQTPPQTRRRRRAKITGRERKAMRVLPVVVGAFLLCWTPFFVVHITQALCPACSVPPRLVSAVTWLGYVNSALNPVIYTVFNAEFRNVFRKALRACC
Chain of Sigma intracellular receptor 2 (Q5BJF2 whole entry): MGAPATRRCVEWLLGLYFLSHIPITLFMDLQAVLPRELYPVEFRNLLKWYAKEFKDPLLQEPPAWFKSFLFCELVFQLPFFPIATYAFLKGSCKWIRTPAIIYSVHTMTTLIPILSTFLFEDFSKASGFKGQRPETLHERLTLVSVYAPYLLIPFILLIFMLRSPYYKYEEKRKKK
Chain of D(3) dopamine receptor (P35462 whole entry): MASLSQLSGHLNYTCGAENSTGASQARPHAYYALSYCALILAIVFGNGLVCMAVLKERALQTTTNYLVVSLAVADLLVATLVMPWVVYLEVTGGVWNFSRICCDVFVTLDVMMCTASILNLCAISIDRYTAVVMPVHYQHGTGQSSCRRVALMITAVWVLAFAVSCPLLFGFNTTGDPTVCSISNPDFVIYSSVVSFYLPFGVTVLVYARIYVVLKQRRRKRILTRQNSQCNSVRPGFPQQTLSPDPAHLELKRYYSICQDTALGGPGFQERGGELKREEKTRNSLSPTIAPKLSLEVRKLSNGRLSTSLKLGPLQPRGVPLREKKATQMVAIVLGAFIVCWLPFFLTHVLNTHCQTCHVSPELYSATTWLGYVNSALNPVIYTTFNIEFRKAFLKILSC
Chain of Translocator protein (P30536 whole entry): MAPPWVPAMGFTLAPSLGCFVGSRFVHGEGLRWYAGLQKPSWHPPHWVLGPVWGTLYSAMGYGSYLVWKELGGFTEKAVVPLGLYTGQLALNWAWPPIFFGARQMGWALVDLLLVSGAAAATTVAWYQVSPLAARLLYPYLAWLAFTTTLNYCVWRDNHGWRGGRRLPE

Ki (Adenosine receptor A3 [1]) [nM]	inhibition [2] [%]	inhibition (Adenosine receptor A2a [3]) [%]	Ki (Adenosine receptor A2a [4]) [nM]	Ki (Adenosine receptor A1 [5]) [nM]	Ki (Adenosine receptor A3 [6]) [nM]	Ki (Translocator protein) [nM]	Ki (Adenosine receptor A1 [7]) [nM]	Ki [8] [nM]	Ki (D(4) dopamine receptor) [nM]	Ki (D(3) dopamine receptor) [nM]	inhibition [9] [%]	Compound
80.7	21	-0.5	–	–	–	–	–	–	–	–	–	Cc1cc(C#Cc2ccc(Cl)s2)cc(-c2nc(NC(=O)c3cccnc3)sc2-c2ccncc2)c1
26.6	38	–	> 1000	–	–	–	–	–	–	–	–	Cc1cc(C)cc(-c2nc(NC(=O)c3cncc(Br)c3)sc2-c2ccncc2)c1
6.12	–	–	–	8770	12.4	1330	2640	3690	1240	340	7.4	Cc1cc(I)cc(-c2nc(NC(=O)c3cccnc3)sc2-c2ccncc2)c1

— ChEMBL document CHEMBL5038675, “Selective A3 Adenosine Receptor Antagonist Radioligand for Human and Rodent Species” (ACS Med Chem Lett, 2022)
